Tested on: 958767-090-R-J1-PDC spheroid growth
Assay: Anticancer human tumor 958767-090-R-J1-PDC patient-derived head and neck squamous carcinoma cell line growth inhibition [IpAb]
Details: spheroids with HUVEC and MSC; for IC50: curve of first compound; for viability, T/C: stronger effect = lower value
How it was run: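 Combinations with ipatasertib or abemaciclib were tested on tumour spheroids holding HUVEC (25%) and MSC (15%) alongside 60% malignant cells. Top concentration was at or near clinical Cmax (10 microM if undefined), descending in half-log steps.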

[1] = second compound 0.1 µM, first compound 0.0316 µM
[2] = second compound 0.1 µM, first compound 0.1 µM
[3] = second compound 0.1 µM, first compound 0.316 µM
[4] = second compound 0.1 µM, first compound 1 µM
[5] = second compound 0.1 µM, first compound 3.16 µM
[6] = second compound 0.1 µM, first compound 10 µM
[7] = second compound 0.316 µM, first compound 0.0316 µM
[8] = second compound 0.316 µM, first compound 0.1 µM
[9] = second compound 0.316 µM, first compound 0.316 µM
[10] = second compound 0.316 µM, first compound 1 µM
[11] = second compound 0.316 µM, first compound 3.16 µM
[12] = second compound 0.316 µM, first compound 10 µM
[13] = second compound 1 µM, first compound 0.0316 µM
[14] = second compound 1 µM, first compound 0.1 µM
[15] = second compound 1 µM, first compound 0.316 µM
[16] = second compound 1 µM, first compound 1 µM
[17] = second compound 1 µM, first compound 3.16 µM
[18] = second compound 1 µM, first compound 10 µM
[19] = second compound 3.16 µM, first compound 0.0316 µM
[20] = second compound 3.16 µM, first compound 0.1 µM
[21] = second compound 3.16 µM, first compound 0.316 µM
[22] = second compound 3.16 µM, first compound 1 µM
[23] = second compound 3.16 µM, first compound 3.16 µM
[24] = second compound 3.16 µM, first compound 10 µM
[25] = second compound 10 µM, first compound 0.0316 µM
[26] = second compound 10 µM, first compound 0.1 µM
[27] = second compound 10 µM, first compound 0.316 µM
[28] = second compound 10 µM, first compound 1 µM
[29] = second compound 10 µM, first compound 3.16 µM
[30] = second compound 10 µM, first compound 10 µM
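Note: spheroids exposed to agents for 7 days.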
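Throughout, for viability, T/C: 100% = DMSO vehicle control wells.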

SMILES | IC50 (second compound 0.1 µM) | IC50 (second compound 0.316 µM) | IC50 (second compound 1 µM) | IC50 (second compound 3.16 µM) | IC50 (second compound 10 µM) | viability, T/C [1] | viability, T/C [2] | viability, T/C [3] | viability, T/C [4] | viability, T/C [5] | viability, T/C [6] | viability, T/C [7] | viability, T/C [8] | viability, T/C [9] | viability, T/C [10] | viability, T/C [11] | viability, T/C [12] | viability, T/C [13] | viability, T/C [14] | viability, T/C [15] | other results
CC1(C)CCC(CN2CCN(c3ccc(C(=O)NS(=O)(=O)c4ccc(NCC5CCOCC5)c([N+](=O)[O-])c4)c(Oc4cnc5[nH]ccc5c4)c3)CC2)=C(c2ccc(Cl)cc2)C1 + CC(C)NCC(C(=O)N1CCN(c2ncnc3c2C(C)CC3O)CC1)c1ccc(Cl)cc1 | 5100 nM | 3390 nM | < 31.6 nM | < 31.6 nM | < 31.6 nM | 78.3% | 66.5% | 62.5% | 87.9% | 103% | 8.08% | 60.8% | 54.9% | 44.4% | 44.4% | 60.4% | 4.07% | 45.1% | 47.5% | 40.8% | viability, T/C [16]: 36%; viability, T/C [17]: 38.2%; viability, T/C [18]: 2.04%; viability, T/C [19]: 37.2%; viability, T/C [20]: 35.3%; viability, T/C [21]: 35.6%; viability, T/C [22]: 29.3%; viability, T/C [23]: 37.1%; viability, T/C [24]: 2.03%; viability, T/C [25]: 34.3%; viability, T/C [26]: 27%; viability, T/C [27]: 24.2%; viability, T/C [28]: 28.8%; viability, T/C [29]: 30.7%; viability, T/C [30]: 0.98%
Cn1nccc1Nc1nccc(-c2ccn(C(CO)c3ccc(Cl)c(F)c3)c(=O)c2)n1 (stereo not given) + CC(C)NCC(C(=O)N1CCN(c2ncnc3c2C(C)CC3O)CC1)c1ccc(Cl)cc1 | 495 nM | 137 nM | 64 nM | 38.5 nM | < 31.6 nM | 86.8% | 65.5% | 56.1% | 43.7% | 28.2% | 13.4% | 66.5% | 46.4% | 44.6% | 32.8% | 17.7% | 5.2% | 54.1% | 47.9% | 36.1% | viability, T/C [16]: 23.1%; viability, T/C [17]: 13.2%; viability, T/C [18]: 3.79%; viability, T/C [19]: 53.6%; viability, T/C [20]: 37.1%; viability, T/C [21]: 27.8%; viability, T/C [22]: 19.4%; viability, T/C [23]: 10.4%; viability, T/C [24]: 4.11%; viability, T/C [25]: 44.7%; viability, T/C [26]: 35%; viability, T/C [27]: 24.1%; viability, T/C [28]: 15.2%; viability, T/C [29]: 8.11%; viability, T/C [30]: 3.09%
